The values below come from US20210038607A1, “OXADIAZOLYLTHIOPHENE DERIVATIVES USEFUL AS HISTONE DEACETYLASE INHIBITORS” (Karus Therapeutics Limited, priority 2018, published 2021).

One test addresses T1, Human HDAC9 (Homo sapiens, UniProt Q9UKV0).
T1 construct: amino acids 604-1066 with C-terminal His tag; His (C); host or cells: baculovirus expression system
Nature of the test: HDAC9 biochemical assay, class IIa-specific substrate. The conditions noted are these: read-out: HDAC Isoform IC50 (nM) 9. The gist of the method: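 HDAC9 residues 604-1066 (C-terminal His tag, baculovirus-expressed) at 0.06 ng/ul with 50 μM class IIa substrate Boc-Lys(trifluoroacetyl)-AMC in Tris-HCl pH 8.0 buffer with BSA and 1% DMSO. 30 min at room temperature, then developer added; fluorescence read at 360/460 nm Ex/Em.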

The target in a further test is T2, Human HDAC4 (Homo sapiens, UniProt P56524).
T2 construct: amino acids 627-1085 with N-terminal GST tag; GST (N); host or cells: baculovirus expression system
Nature of the test: HDAC4 biochemical assay, class IIa-specific substrate. The conditions noted are these: read-out: HDAC Isoform IC50 (nM) 4. The gist of the method: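 GST-tagged human HDAC4 (aa 627-1085, baculovirus) at 0.004 ng/ul was incubated 30 min at room temperature with 50 μM class IIa-specific substrate BOC-Lys(trifluoroacetyl)-AMC in Tris-HCl pH 8.0 buffer with BSA, 1% DMSO. Developer then released AMC, read at 360/460 nm.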

The target of another test is T3, Recombinant human HDAC6 (Homo sapiens, UniProt Q9UBN7).
T3 construct: full length, MW=159 kDa; GST (N); host or cells: Sf9 insect cells (baculovirus)
T3 sequence (Q9UBN7 1-1215): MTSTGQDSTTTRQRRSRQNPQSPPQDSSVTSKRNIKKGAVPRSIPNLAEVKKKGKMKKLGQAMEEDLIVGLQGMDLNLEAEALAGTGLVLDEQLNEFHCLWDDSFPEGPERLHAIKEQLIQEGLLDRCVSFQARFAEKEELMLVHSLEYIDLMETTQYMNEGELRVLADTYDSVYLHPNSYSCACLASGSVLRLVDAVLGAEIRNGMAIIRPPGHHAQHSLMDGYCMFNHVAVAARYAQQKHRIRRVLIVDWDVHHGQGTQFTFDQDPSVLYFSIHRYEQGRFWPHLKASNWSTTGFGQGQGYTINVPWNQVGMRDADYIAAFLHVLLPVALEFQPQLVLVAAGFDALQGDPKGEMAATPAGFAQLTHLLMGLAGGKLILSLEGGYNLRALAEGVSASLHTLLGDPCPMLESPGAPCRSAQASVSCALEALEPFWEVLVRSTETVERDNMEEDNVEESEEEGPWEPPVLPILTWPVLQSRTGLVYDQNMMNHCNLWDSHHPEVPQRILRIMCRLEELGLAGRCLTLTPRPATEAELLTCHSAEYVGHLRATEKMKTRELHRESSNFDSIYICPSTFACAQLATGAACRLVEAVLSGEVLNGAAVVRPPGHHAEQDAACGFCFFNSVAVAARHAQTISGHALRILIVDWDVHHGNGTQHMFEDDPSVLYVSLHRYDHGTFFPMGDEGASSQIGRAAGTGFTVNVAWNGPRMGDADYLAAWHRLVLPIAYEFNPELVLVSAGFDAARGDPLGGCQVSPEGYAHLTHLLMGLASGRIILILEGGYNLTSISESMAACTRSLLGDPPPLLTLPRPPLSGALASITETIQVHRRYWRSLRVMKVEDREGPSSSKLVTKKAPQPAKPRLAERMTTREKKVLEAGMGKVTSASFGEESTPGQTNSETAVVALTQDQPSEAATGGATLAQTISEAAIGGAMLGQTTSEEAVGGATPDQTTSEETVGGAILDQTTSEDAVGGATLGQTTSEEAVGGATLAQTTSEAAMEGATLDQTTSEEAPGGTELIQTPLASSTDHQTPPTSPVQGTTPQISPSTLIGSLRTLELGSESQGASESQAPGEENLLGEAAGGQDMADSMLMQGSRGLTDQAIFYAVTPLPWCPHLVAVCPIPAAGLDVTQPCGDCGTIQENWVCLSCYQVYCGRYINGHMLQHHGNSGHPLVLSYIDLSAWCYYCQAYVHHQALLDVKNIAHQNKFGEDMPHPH
In words: HDAC6 biochemical assay, AMC-labeled peptide substrate. The conditions noted are these: HDAC6; read-out: HDAC Isoform IC50 (nM) 6. An outline of the steps:
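Two-step fluorogenic read-out: enzyme deacetylates 50 μM RHKK(Ac)AMC for 1 h at 30° C in pH 8.0 Tris buffer with BSA and 1% DMSO, then developer cleavage gives signal at Ex 360/Em 460. Enzyme: 0.3 ng/ul recombinant full-length human HDAC6, GST-tagged, Sf9-expressed.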

For a further test, the target named is T4, Human HDAC7 (Homo sapiens, UniProt Q8WUI4).
T4 construct: (a.a. 518-end) with N-terminal GST tag; GST (N); host or cells: baculovirus expression system
T4 sequence (Q8WUI4 518-952 limits assumed): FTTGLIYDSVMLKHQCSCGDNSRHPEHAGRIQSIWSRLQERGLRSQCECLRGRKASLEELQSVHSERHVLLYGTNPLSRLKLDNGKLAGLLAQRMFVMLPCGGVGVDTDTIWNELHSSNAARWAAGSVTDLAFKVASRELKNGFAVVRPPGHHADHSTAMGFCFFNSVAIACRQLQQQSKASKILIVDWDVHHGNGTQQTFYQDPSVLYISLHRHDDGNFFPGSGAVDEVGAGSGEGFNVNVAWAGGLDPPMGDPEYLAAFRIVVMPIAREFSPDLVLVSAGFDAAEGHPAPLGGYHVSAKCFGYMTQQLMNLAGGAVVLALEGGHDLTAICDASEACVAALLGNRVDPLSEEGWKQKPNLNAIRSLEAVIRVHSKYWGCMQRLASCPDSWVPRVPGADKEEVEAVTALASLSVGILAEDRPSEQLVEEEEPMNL
Nature of the test: HDAC7 biochemical assay, class IIa-specific substrate. The conditions noted are these: read-out: HDAC Isoform IC50 (nM) 7. The gist of the method:
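GST-tagged HDAC7 (a.a. 518-end, baculovirus-expressed) at 0.001 ng/ul with 50 μM Boc-Lys(trifluoroacetyl)-AMC substrate, 30 min at room temperature in pH 8.0 Tris buffer with BSA, 1% DMSO final. Developer then releases AMC; fluorescence read at 360/460 nm.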

In a further test the target is T5, Human HDAC5 (Homo sapiens, UniProt Q9UQL6).
T5 construct: full length with C-terminal His tag, MW=51.1 kDa; His (C); host or cells: baculovirus expression system
In words: HDAC5 biochemical assay, class IIa-specific substrate. The conditions noted are these: read-out: HDAC Isoform IC50 (nM) 5. The gist of the method: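 Full-length C-terminal His-tagged HDAC5 from baculovirus (0.05 ng/ul) incubated 30 min at room temperature with 50 μM Boc-Lys(trifluoroacetyl)-AMC and compound, Tris pH 8.0 buffer with BSA, 1% DMSO. Developer then releases AMC; fluorescence 360/460 nm.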

A further test concerns the target T6, Human HDAC1 (Homo sapiens, UniProt Q13547).
T6 construct: full length with C-terminal His-tag and C-terminal FLAG-tag; His (C); FLAG (C); host or cells: baculovirus expression system
In words: HDAC1 biochemical assay, AMC-labeled peptide substrate. Particulars: read-out: HDAC Isoform IC50 (nM) 1. The gist of the method:
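Baculovirus-expressed full-length human HDAC1 with His and FLAG tags, 0.3 ng/ul, incubated 1 h at 30° C with compound and 50 μM RHKK(Ac)AMC in Tris pH 8.0 buffer with BSA and 1% DMSO. Developer then releases AMC from deacetylated substrate; fluorescence read at 360/460 nm.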

T1 sequence (Q9UKV0 604-1066 isoform Q9UKV0-5): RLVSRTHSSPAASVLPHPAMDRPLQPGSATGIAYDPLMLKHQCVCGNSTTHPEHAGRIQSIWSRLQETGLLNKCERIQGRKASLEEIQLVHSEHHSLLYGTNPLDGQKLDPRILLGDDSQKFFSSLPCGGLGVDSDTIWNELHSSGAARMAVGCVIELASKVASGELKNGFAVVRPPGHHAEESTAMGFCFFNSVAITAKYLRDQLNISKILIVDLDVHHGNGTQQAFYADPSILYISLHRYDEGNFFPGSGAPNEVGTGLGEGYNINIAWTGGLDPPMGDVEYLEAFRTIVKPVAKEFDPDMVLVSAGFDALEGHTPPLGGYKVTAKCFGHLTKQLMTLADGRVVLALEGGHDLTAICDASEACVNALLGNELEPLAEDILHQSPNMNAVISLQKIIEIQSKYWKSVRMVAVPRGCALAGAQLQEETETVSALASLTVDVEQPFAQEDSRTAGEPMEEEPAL
T6 sequence (Q13547 whole entry): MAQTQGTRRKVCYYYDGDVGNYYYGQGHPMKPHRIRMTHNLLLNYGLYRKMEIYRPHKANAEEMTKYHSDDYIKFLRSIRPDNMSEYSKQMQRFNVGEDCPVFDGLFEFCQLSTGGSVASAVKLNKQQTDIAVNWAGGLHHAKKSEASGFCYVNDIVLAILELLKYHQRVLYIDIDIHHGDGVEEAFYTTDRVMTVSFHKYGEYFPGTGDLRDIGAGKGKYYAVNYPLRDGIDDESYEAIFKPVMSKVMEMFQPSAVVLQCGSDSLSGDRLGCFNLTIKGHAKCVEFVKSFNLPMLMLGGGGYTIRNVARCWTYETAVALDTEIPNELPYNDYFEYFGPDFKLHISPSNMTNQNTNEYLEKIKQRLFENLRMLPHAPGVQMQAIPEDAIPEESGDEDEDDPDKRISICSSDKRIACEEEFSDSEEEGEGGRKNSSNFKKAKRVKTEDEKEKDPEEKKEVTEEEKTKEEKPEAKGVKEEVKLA
T2 sequence (P56524 627-1084 limits assumed): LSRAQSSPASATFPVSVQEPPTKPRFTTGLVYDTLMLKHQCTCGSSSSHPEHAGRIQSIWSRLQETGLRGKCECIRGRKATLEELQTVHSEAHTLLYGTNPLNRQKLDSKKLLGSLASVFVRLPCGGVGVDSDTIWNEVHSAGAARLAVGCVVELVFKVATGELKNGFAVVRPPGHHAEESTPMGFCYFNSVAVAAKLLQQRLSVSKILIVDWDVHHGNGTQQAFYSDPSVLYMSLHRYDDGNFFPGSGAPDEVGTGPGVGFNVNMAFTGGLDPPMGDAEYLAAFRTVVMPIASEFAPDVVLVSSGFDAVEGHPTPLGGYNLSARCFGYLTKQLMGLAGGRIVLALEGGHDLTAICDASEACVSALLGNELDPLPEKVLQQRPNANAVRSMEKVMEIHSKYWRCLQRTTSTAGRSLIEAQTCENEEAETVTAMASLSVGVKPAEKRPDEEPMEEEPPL
T5 sequence (Q9UQL6 656-1122 limits assumed): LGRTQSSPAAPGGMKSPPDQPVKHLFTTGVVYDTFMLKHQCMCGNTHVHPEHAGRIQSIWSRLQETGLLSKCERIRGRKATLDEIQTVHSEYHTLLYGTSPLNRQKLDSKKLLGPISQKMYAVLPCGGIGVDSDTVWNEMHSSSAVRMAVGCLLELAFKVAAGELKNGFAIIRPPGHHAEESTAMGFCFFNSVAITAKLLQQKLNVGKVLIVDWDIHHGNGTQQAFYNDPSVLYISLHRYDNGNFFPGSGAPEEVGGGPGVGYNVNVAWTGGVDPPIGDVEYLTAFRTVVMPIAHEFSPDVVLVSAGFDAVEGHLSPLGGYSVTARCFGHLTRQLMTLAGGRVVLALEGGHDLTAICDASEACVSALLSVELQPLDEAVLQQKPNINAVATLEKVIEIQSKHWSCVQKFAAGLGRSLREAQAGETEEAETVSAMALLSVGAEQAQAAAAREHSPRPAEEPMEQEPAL

Consider `FC(F)(F)c1nc(-c2ccc(CN(c3cnccn3)c3cscn3)s2)no1` [Example T, N-(1,3-Thiazol-4-yl)-N-({5-[5-(trifluoromethyl)-1,2,4-oxadiazol-3-yl]thiophen-2-yl}methyl)pyrazin-2-amine], for which the IC50 at Human HDAC9 was no more than 10000 nM; at Human HDAC4, no more than 1000 nM; at Recombinant human HDAC6, no more than 10000 nM; on Human HDAC7, no more than 10000 nM; at Human HDAC5, no more than 1000 nM; at Human HDAC1, no more than 10000 nM.
In the case of `FC(F)(F)c1nc(-c2ccc(CN(c3cnccn3)c3cccc(N4CCOCC4)n3)s2)no1` [Example W, N-[6-(Morpholin-4-yl)pyridin-2-yl]-N-({5-[5-(trifluoromethyl)-1,2,4-oxadiazol-3-yl]thiophen-2-yl}methyl)pyrazin-2-amine], the IC50 was no more than 10000 nM on Human HDAC9; no more than 10000 nM at Human HDAC4; no more than 10000 nM on Recombinant human HDAC6; no more than 10000 nM at Human HDAC7; no more than 10000 nM at Human HDAC5; greater than 10000 nM on Human HDAC1.
For the compound `FC(F)(F)c1nc(-c2ccc(CN(c3cnccn3)c3ccc4ncccc4n3)s2)no1` [Example X, N-(Pyrazin-2-yl)-N-({5-[5-(trifluoromethyl)-1,2,4-oxadiazol-3-yl]thiophen-2-yl}methyl)-1,5-naphthyridin-2-amine], the IC50 at Human HDAC9 was no more than 1000 nM; at Human HDAC4, no more than 500 nM; on Recombinant human HDAC6, no more than 1000 nM; at Human HDAC7, no more than 1000 nM; on Human HDAC5, no more than 1000 nM; on Human HDAC1, greater than 10000 nM.
Turning to `FC(F)(F)c1nc(-c2ccc(CN(c3cnccn3)c3ccc4ccncc4n3)s2)no1` [Example Y, N-(Pyrazin-2-yl)-N-({5-[5-(trifluoromethyl)-1,2,4-oxadiazol-3-yl]thiophen-2-yl}methyl)-1,7-naphthyridin-2-amine], the IC50 at Human HDAC9 was no more than 1000 nM; at Human HDAC4, no more than 500 nM; on Recombinant human HDAC6 it was no more than 1000 nM; at Human HDAC7 it was no more than 1000 nM; on Human HDAC5 it was no more than 1000 nM; at Human HDAC1 it was greater than 10000 nM.
For the compound `FC(F)(F)c1nc(-c2ccc(CN(c3cnccn3)c3ccc4nccnc4n3)s2)no1` [Example Z, N-{Pyrido[2,3-b]pyrazin-6-yl}-N-({5-[5-(trifluoromethyl)-1,2,4-oxadiazol-3-yl]thiophen-2-yl}methyl)pyrazin-2-amine], the IC50 was no more than 10000 nM on Human HDAC9; no more than 1000 nM at Human HDAC4; no more than 1000 nM on Recombinant human HDAC6; no more than 1000 nM on Human HDAC7; no more than 1000 nM on Human HDAC5; greater than 10000 nM at Human HDAC1.

By IC50 is commonly meant the concentration needed to halve the response being measured.
